One test deals with T1, tyrosinase (Homo sapiens, UniProt P14679).
T1 sequence (P14679 19-529): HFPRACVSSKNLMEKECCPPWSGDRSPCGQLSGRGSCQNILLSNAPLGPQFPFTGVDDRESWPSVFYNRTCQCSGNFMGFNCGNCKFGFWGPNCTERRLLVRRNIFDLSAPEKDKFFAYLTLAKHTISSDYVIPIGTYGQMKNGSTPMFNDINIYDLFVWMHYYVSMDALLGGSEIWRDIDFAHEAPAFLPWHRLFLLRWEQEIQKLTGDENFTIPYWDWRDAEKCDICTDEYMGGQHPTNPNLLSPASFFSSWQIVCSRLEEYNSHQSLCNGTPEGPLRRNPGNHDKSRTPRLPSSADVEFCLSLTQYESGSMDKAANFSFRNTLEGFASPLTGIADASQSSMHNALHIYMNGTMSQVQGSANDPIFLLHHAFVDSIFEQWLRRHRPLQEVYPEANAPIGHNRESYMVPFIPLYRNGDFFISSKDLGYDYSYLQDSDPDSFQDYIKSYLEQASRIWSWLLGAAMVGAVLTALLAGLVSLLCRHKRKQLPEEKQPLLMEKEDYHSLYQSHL
The following applies: for Tyrosinase enzyme activity (µg melanin/µg protein/h): 0.5 mM L-DOPA, 37 °C, 2 hours, n=5; for tyrosinase-inhibiting effect: Student's t-test.

Test [1] concerns Normal human epidermal fibroblasts. The experiment in a line: Evaluation of reducing effect of oxidative stress induced cell damage (UVB 20 mJ/cm^2, Neutral Red). Type of test: cell-based. The procedure:
(§1) When cells are irradiated with UVB, reactive oxygen species (such as a superoxide anion radical, hydrogen peroxide, and a hydroxyl radical) generate. The viability of cells obtained when the cells were irradiated with UVB was used as index to evaluate the reducing effect of the oxidative stress induced cell damage.
(§2) Normal human epidermal fibroblasts suspended in a KG2 medium were inoculated in a 96-well plate at a density of 2.0 x 10^4 cells per well. After 24 hours of the inoculation, the medium was exchanged with a KG2 medium (each test solution) which contained trehalulose or reduced isomaltulose at the concentrations shown in Table 2 (i.e., each six types of concentrations including 0.000 w/v %) and cultured for 24 hours. […] Also, groups that were not irradiated with UVB were provided as control groups. After culturing, the medium was exchanged with a KB2 medium containing 33 µg/mL of Neutral Red (NR) and was cultured for 2 hours. After culturing, the cells were washed with PBS, and NR captured within the cells was extracted with a 0.1M HCl solution containing 30% (v/v) ethanol. Absorbance of the extract at 550 nm was measured.

The test system is the same in test [2]. In words: Evaluation of fibroblast-activating effect (MTT, blue formazan). Conditions: for activity at 0.313 % / activity at 0.625 % / activity at 1.25 % / activity at 2.5 % / activity at 5 %: Homo sapiens, Fibroblast, 48 h, blue formazan relative to non-treated cells = 100, n=4, read-out: Index (%); for activity at 0.313 %: 0.313 w/v%; for activity at 0.625 %: 0.625 w/v%; for activity at 1.25 %: 1.250 w/v%; for activity at 2.5 %: 2.500 w/v%; for activity at 5 %: 5.000 w/v%; for fibroblast-activating effect: Student's t-test. Type of test: cell-based. The procedure:
Normal human epidermal fibroblasts suspended in a DMEM medium containing a 5% calf serum (FBS) were inoculated in a 96-well plate at a density of 2.0 x 10^4 cells per well. After 24 hours of the inoculation, the medium was exchanged with a 1% calf serum (FBS) -containing DMEM medium (each test solution) which contained trehalulose, isomaltulose, or reduced isomaltulose at the concentrations shown in Table 1 (i.e., each six types of concentrations including 0.000 w/v %). […] Also, 5% FBS-containing DMEM media were used as positive controls (P.C.). After culturing for 48 hours, the medium was exchanged with a 1% FBS-containing DMEM medium which contained 0.4 mg/mL of 3-(4,5-dimethylthiazol-2-yl)-2,5-diphenyltetrazolium bromide (MTT) and cultured for 2 hours. The medium was removed, and when 2-propanol was added, blue formazan generated was extracted. Absorbance of the extract at 550 nm was measured to obtain the amount of blue formazan.

For test [3] the test system is unchanged. The experiment in a line: Evaluation of reducing effect of oxidative stress induced cell damage (UVB 25 mJ/cm^2, Neutral Red). Type of test: cell-based. The protocol: as §1, §2
Except that the each test solution was changed to a KG2 medium which contained isomaltulose at the concentrations shown in Table 4 (i.e., six types of concentrations including 0.000 w/v %) and that the irradiation intensity of UVB was changed to 25 mJ/cm^2, the reducing effect of the oxidative stress induced cell damage was evaluated according to the same procedure as in Example 2.

Like-named read-outs stand apart in the source and are kept apart here.

As to `O=C(CO[C@H]1O[C@H](CO)[C@@H](O)[C@H](O)[C@H]1O)[C@@H](O)[C@H](O)[C@H](O)CO` [Trehalulose, 1-O-α-D-glucopyranosyl-D-fructose], on tyrosinase (0.094 w/v%), the “Tyrosinase enzyme activity (µg melanin/µg protein/h)” value (shortened to “Tyrosinase enzyme activity”) is 0.251 ± 0.034 µg melanin/µg protein/h. Moreover, the “Tyrosinase enzyme activity” value on tyrosinase (0.188 w/v%) is reported as 0.251 ± 0.051 µg melanin/µg protein/h. In addition, the “Tyrosinase enzyme activity” value on tyrosinase (0.375 w/v%) is 0.244 ± 0.044 µg melanin/µg protein/h. The “Tyrosinase enzyme activity” value at tyrosinase (0.750 w/v%) was determined as 0.232 ± 0.028 µg melanin/µg protein/h. Also, on tyrosinase (1.500 w/v%), the “Tyrosinase enzyme activity” value was determined as 0.197 ± 0.004 µg melanin/µg protein/h. The “Tyrosinase enzyme activity” value at tyrosinase (3.000 w/v%) was found to be 0.188 ± 0.004 µg melanin/µg protein/h. Further, the tyrosinase-inhibiting effect result on tyrosinase is on record as “significant tyrosinase-inhibiting effect”. In addition, the viability at 0.125 % in test [1] (Homo sapiens, Fibroblast, light or radiation study, 24 h, 0.125 w/v%, absorbance relative to UVB non-irradiated group = 100, n=4, read-out: Index (%)) was determined as 80.7 ± 2.7%. In test [1] (Homo sapiens, Fibroblast, light or radiation study, 24 h, 0.250 w/v%, absorbance relative to UVB non-irradiated group = 100, n=4, read-out: Index (%)), the viability at 0.25 % was 82 ± 4.1%. Also, the viability at 0.5 % in test [1] (Homo sapiens, Fibroblast, light or radiation study, 24 h, 0.500 w/v%, absorbance relative to UVB non-irradiated group = 100, n=4, read-out: Index (%)) worked out at 86.5 ± 1.3%. Also, in test [1] (Homo sapiens, Fibroblast, light or radiation study, 24 h, 1.000 w/v%, absorbance relative to UVB non-irradiated group = 100, n=4, read-out: Index (%)), the viability at 1 % amounted to 93 ± 0.4%. Further, in test [1] (Homo sapiens, Fibroblast, light or radiation study, 24 h, 2.000 w/v%, absorbance relative to UVB non-irradiated group = 100, n=4, read-out: Index (%)), the viability at 2 % amounted to 94.8 ± 1%. Also, the “reducing effect of cell damage” value in test [1] (Student's t-test) is recorded as “significant reducing effect of cell damage”. Also, in test [2], the activity at 0.313 % worked out at 101 ± 2.4%, the activity at 0.625 % amounted to 104 ± 2.5%, the activity at 1.25 % came out at 106.9 ± 0.8% and the activity at 2.5 % came to 112 ± 1.4%. Besides, in test [2], the activity at 5 % amounted to 114 ± 5.8% and the fibroblast-activating effect entry was “significant fibroblast-activating effect”.

As to `O=C(CO)[C@@H](O)[C@H](O)[C@H](O)CO[C@H]1O[C@H](CO)[C@@H](O)[C@H](O)[C@H]1O` [Isomaltulose, 6-O-α-D-glucopyranosyl-D-fructose], on tyrosinase (0.094 w/v%), the “Tyrosinase enzyme activity” value was 0.205 ± 0.004 µg melanin/µg protein/h. Also, the “Tyrosinase enzyme activity” value on tyrosinase (0.188 w/v%) worked out at 0.208 ± 0.003 µg melanin/µg protein/h. In addition, the “Tyrosinase enzyme activity” value at tyrosinase (0.375 w/v%) is reported as 0.200 ± 0.006 µg melanin/µg protein/h. Further, the “Tyrosinase enzyme activity” value at tyrosinase (0.750 w/v%) was determined as 0.196 ± 0.004 µg melanin/µg protein/h. Also, the “Tyrosinase enzyme activity” value at tyrosinase (1.500 w/v%) is 0.190 ± 0.003 µg melanin/µg protein/h. Also, the “Tyrosinase enzyme activity” value on tyrosinase (3.000 w/v%) is 0.184 ± 0.004 µg melanin/µg protein/h. For the same molecule, at tyrosinase, the tyrosinase-inhibiting effect result is “significant tyrosinase-inhibiting effect”. For the same molecule, in test [2], the activity at 0.313 % was found to be 101 ± 2%, the activity at 0.625 % was determined as 107 ± 4.4%, the activity at 1.25 % was determined as 111 ± 2.3% and the activity at 2.5 % was found to be 113 ± 2.1%. Also, in test [2], the activity at 5 % came out at 112% and the fibroblast-activating effect entry is on record as “significant fibroblast-activating effect”. The viability at 0.013 % in test [3] (Homo sapiens, Fibroblast, light or radiation study, 24 h, 0.013 w/v%, absorbance relative to UVB non-irradiated group = 100, n=4, read-out: Index (%)) came to 80 ± 1.8%. For the same molecule, the viability at 0.025 % in test [3] (Homo sapiens, Fibroblast, light or radiation study, 24 h, 0.025 w/v%, absorbance relative to UVB non-irradiated group = 100, n=4, read-out: Index (%)) turned out to be 83.7 ± 3.5%. Also, the viability at 0.05 % in test [3] (Homo sapiens, Fibroblast, light or radiation study, 24 h, 0.050 w/v%, absorbance relative to UVB non-irradiated group = 100, n=4, read-out: Index (%)) was determined as 84.3 ± 1.1%. Further, the viability at 0.1 % in test [3] (Homo sapiens, Fibroblast, light or radiation study, 24 h, 0.100 w/v%, absorbance relative to UVB non-irradiated group = 100, n=4, read-out: Index (%)) worked out at 86.2 ± 2.5%. For the same molecule, the viability at 0.2 % in test [3] (Homo sapiens, Fibroblast, light or radiation study, 24 h, 0.200 w/v%, absorbance relative to UVB non-irradiated group = 100, n=4, read-out: Index (%)) stood at 86.8 ± 2.9%. Moreover, the “reducing effect of cell damage” value in test [3] (Student's t-test) was “significant reducing effect of cell damage”.

Source of the values: patent EP3138569B1, “COMPOSITION FOR EXTERNAL APPLICATION” (priority 2014, dated 2015).
